Assay results taken from US9540380B2, “Imidazotriazinone compounds” (Ironwood Pharmaceuticals, Inc., priority 2010, dated 2017).

Tests used:
Assay type in all cases: biochemical
[1] = target: T1, PDE1A (Homo sapiens, UniProt P54750); test: Phosphodiesterase Enzyme Screening Assay, PDE1A (selectivity versus PDE9A2); conditions: ratio of IC50 values; value greater than 1 indicates greater selectivity for PDE9A2
T1 construct: purchased Reaction Biology Corporation, Malvern, Pa
Source text: (§1) Compounds of the invention were screened against PDE1A, PDE1B, PDE2A, PDE3A, PDE3B, PDE4A1A, PDE4B1, PDE4D3, PDE5A1, PDE6C, PDE7A, PDE8A1, PDE9A2, PDE10A2 AND PDE11A isoforms of the phosphodiesterase enzyme to determine activity and overall selectivity through comparative analysis. The assay generally consists of testing the compounds of the invention at 10 concentrations. Where 8-methoxy-IBMX and Zaprinast were used as reference inhibitors.
(§2) The phosphodiesterase enzyme isoforms were obtained from a commercial retailer (Reaction Biology Corporation, Malvern, Pa.) for use in the instant screening assay.
(§3) The analysis was completed using the Caliper LabChip 3000 and a 12-sipper LabChip. LabChip assays are separations-based, meaning that the product and substrate are electrophoretically separated, thereby minimizing interferences and yielding the highest data quality available on any screening platform. Z′ factors for both the EZ Reader and LC3000 enzymatic assays are routinely in the 0.8 to 0.9 range. High Z′ values, few false positives, few false negatives and analytical quality reproducibility are the reasons cited for the increasing reliance on the LabChip assays.
(§4) The off-chip incubation mobility-shift phosphodiesterase assay uses a microfluidic chip to measure the conversion of a fluorescent cyclic AMP substrate to a 5′-AMP product, or a cyclic GMP substrate to a 5′-GMP product. The reaction mixture, from a microtiter plate well, is introduced through a capillary sipper onto the chip, where the fluorescent substrate and product are separated by electrophoresis and detected via laser-induced fluorescence. […] The precision of microfluidics allows researchers to detect subtle interactions between drug candidates and therapeutic targets. The technology is able to detect both strong and weak inhibitors with high accuracy, and routinely identifies drug candidates that conventional techniques miss.
(§5) Reactions were carried out in 100 mM HEPES (pH 7.5), 5 mM MgCl2, 1 mM DTT, 0.003% Brij, 4.0 μM cGMP substrate. The reaction was started by addition of cGMP or cAMP and incubated for 1 hour at R.T. The reaction was terminated by the addition of stop buffer containing 100 mM HEPES (pH 7.5), 15 mM EDTA, 0.015% Brij-35, 5% DMSO. Cyclic AMP/GMP substrate and 5′-AMP/5′-GMP product were separated by charge using electrophoretic mobility shift. Product formed was compared to control wells to determine inhibition or enhancement of enzyme activity.
(§6) One or more reference compounds, depending on phosphodiesterase isoform, selected from 8-methoxy-IBMX, Zaprinast, Trequinsin, Pentoxifyline, Rolipram, and Vinpocetine, Dipyridamole, and BRL-50481 were run alongside client samples to ensure data quality. The resulting IC50 is compared against the historical average and must be within 3-fold of this average.
(§7) Data points were averages of quadruplicate wells and error bars represented the SEM for each point. IC50s were determined using GraphPad Prism Version 5.01 and the log (inhibitor) vs. response variable slope curve fit.

[2] = target: T2, PDE1B (Homo sapiens, UniProt Q01064); test: Phosphodiesterase Enzyme Screening Assay, PDE1B (selectivity versus PDE9A2); conditions: ratio of IC50 values; value greater than 1 indicates greater selectivity for PDE9A2
T2 construct: purchased Reaction Biology Corporation, Malvern, Pa
Source text: as §1, §2, §3, §4, §5, §6, §7

[3] = target: T3, PDE9A2 (Homo sapiens, UniProt O76083); test: Phosphodiesterase Enzyme Screening Assay, PDE9A2 (Caliper LabChip mobility-shift); conditions: 10 concentrations, 4.0 μM cGMP substrate, 1 hour at R.T.; read-out: Band (PDE9A2 IC50)
T3 construct: purchased Reaction Biology Corporation, Malvern, Pa
Source text: as §1, §2, §3, §4, §5, §6, §7

T3 sequence (O76083 1-533 isoform O76083-2): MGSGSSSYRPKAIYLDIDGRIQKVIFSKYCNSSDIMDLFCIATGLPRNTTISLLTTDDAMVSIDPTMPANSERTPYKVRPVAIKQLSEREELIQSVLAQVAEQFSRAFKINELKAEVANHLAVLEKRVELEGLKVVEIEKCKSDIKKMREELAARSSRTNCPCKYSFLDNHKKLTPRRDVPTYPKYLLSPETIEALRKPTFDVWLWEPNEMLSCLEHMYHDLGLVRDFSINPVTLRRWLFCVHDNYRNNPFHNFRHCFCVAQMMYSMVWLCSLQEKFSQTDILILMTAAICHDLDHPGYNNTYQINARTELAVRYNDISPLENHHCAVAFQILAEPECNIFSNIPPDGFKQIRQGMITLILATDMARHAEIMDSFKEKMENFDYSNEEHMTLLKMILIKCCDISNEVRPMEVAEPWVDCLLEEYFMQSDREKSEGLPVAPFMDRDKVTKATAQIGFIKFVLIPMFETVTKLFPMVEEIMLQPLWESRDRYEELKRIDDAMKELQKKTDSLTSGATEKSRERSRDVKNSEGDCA
T1 sequence (P54750 whole entry): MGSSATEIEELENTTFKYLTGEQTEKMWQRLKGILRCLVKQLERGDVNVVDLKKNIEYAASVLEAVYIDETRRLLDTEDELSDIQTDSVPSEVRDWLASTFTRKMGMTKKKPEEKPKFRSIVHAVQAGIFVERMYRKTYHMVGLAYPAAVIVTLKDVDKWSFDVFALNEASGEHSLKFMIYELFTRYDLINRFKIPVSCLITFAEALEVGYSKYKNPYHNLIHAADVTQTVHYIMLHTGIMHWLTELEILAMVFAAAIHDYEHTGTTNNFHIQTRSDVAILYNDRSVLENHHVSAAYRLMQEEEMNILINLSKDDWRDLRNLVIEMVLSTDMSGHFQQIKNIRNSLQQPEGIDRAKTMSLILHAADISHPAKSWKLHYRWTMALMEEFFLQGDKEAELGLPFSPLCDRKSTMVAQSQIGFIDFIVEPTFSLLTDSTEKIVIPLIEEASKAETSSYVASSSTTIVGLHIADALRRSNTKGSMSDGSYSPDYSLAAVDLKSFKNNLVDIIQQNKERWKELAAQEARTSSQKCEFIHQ
T2 sequence (Q01064 whole entry): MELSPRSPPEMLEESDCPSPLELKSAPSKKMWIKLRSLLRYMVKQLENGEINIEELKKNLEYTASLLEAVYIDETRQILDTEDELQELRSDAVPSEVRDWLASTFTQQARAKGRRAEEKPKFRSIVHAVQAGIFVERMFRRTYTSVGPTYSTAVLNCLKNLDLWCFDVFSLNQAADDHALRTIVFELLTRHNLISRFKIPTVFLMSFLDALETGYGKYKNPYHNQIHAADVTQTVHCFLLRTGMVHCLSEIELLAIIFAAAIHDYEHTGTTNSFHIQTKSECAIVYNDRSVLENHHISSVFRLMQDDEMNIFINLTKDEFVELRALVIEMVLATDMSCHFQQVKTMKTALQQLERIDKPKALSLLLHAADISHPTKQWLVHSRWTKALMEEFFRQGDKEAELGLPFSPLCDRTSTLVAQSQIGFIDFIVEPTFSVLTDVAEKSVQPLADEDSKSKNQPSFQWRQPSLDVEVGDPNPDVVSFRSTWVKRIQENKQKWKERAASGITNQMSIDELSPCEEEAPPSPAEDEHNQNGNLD

| SMILES | IC50 [3] | also measured |
| --- | --- | --- |
| CC1CN(Cc2ccccc2)CC1c1nn2c(C3CCCOC3)ncc2c(=O)[nH]1 (single isomer, unassigned) [2-((3,4-trans)-1-benzyl-4-methylpyrrolidin-3-yl)-7-(tetrahyd] [2-((3,4-trans)-1-benzyl-4-methylpyrrolidin-3-yl)-7-(tetrahydro-2H-pyran-3-yl)imidazo[5,1-f][1,2,4]triazin-4(3H)-one] | – | PDE1A selectivity (versus PDE9A2) [1]: 28; PDE1B selectivity (versus PDE9A2) [2]: 38 |
| C[C@@H]1CN(Cc2cn3ncccc3n2)C[C@H]1c1nn2c(C3CCOCC3)ncc2c(=O)[nH]1 (single isomer, unassigned) [(−)-2-((3,4-trans)-1-(imidazo[1,2-b]pyridazin-2-ylmethyl)-4-] [(−)-2-((3,4-trans)-1-(imidazo[1,2-b]pyridazin-2-ylmethyl)-4-methylpyrrolidin-3-yl)-7-(tetrahydro-2H-pyran-4-yl)imidazo[5,1-f][1,2,4]triazin-4(3H)-one] | < 1000 nM | – |
| C[C@@H]1CN(Cc2ccc3nccn3n2)C[C@H]1c1nn2c(C3CCOCC3)ncc2c(=O)[nH]1 (single isomer, unassigned) [(−)-2-((3,4-trans)-1-(imidazo[1,2-b]pyridazin-6-ylmethyl)-4-methylpyrrolidin-3-yl)-7-(tetrahydro-2H-pyran-4-yl)imidazo[5,1-f][1,2,4]triazin-4(3H)-one] | < 1000 nM | – |
| CCS(=O)(=O)N1CCC(c2ncc3c(=O)[nH]c([C@@H]4CN(Cc5ccccc5)C[C@H]4C)nn23)CC1 (single isomer, unassigned) [(−)-2-((3,4-trans)-1-benzyl-4-methylpyrrolidin-3-yl)-7-(1-(ethylsulfonyl)piperidin-4-yl)imidazo[5,1-f][1,2,4]triazin-4(3H)-one] | > 10000 nM | – |
| C[C@@H]1CN(Cc2ccccc2)C[C@H]1c1nn2c(C(C)(C)O)ncc2c(=O)[nH]1 (single isomer, unassigned) [(−)-2-((3,4-trans)-1-benzyl-4-methylpyrrolidin-3-yl)-7-(2-hydroxypropan-2-yl)imidazo[5,1-f][1,2,4]triazin-4(3H)-one] | > 10000 nM | – |
| C[C@@H]1CN(Cc2ccccc2)C[C@H]1c1nn2c(C3CCC(F)(F)CC3)ncc2c(=O)[nH]1 (single isomer, unassigned) [(−)-2-((3,4-trans)-1-benzyl-4-methylpyrrolidin-3-yl)-7-(4,4-difluorocyclohexyl)imidazo[5,1-f][1,2,4]triazin-4(3H)-one] | < 1000 nM | – |
| Cc1cc(F)ccc1-c1ncc2c(=O)[nH]c([C@@H]3CN(Cc4ccccc4)C[C@H]3C)nn12 (single isomer, unassigned) [(−)-2-((3,4-trans)-1-benzyl-4-methylpyrrolidin-3-yl)-7-(4-fluoro-2-methylphenyl)imidazo[5,1-f][1,2,4]triazin-4(3H)-one] | > 10000 nM | – |
| Cc1ccc(Cl)cc1-c1ncc2c(=O)[nH]c([C@@H]3CN(Cc4ccccc4)C[C@H]3C)nn12 (single isomer, unassigned) [(−)-2-((3,4-trans)-1-benzyl-4-methylpyrrolidin-3-yl)-7-(5-chloro-2-methylphenyl)imidazo[5,1-f][1,2,4]triazin-4(3H)-one] | 1000 to 10000 nM | – |
| C[C@@H]1CN(Cc2ccccc2)C[C@H]1c1nn2c(-c3ccoc3)ncc2c(=O)[nH]1 (single isomer, unassigned) [(−)-2-((3,4-trans)-1-benzyl-4-methylpyrrolidin-3-yl)-7-(furan-3-yl)imidazo[5,1-f][1,2,4]triazin-4(3H)-one] | 1000 to 10000 nM | – |
| C[C@@H]1CN(Cc2cnccn2)C[C@H]1c1nn2c(C3CCOCC3)ncc2c(=O)[nH]1 (single isomer, unassigned) [(−)-2-((3,4-trans)-4-methyl-1-(pyrazin-2-ylmethyl)pyrrolidin-3-yl)-7-(tetrahydro-2H-pyran-4-yl)imidazo[5,1-f][1,2,4]triazin-4(3H)-one] | 1000 to 10000 nM | – |
| Cc1ccccc1-c1ncc2c(=O)[nH]c([C@@H]3CN(Cc4ncccn4)C[C@H]3C)nn12 (single isomer, unassigned) [(−)-2-((3,4-trans)-4-methyl-1-(pyrimidin-2-ylmethyl)pyrrolidin-3-yl)-7-(o-tolyl)imidazo[5,1-f][1,2,4]triazin-4(3H)-one] | 1000 to 10000 nM | – |
| C[C@@H]1CN(Cc2ncccn2)C[C@H]1c1nn2c(C3CCOCC3)ncc2c(=O)[nH]1 (single isomer, unassigned) [(−)-2-((3,4-trans)-4-methyl-1-(pyrimidin-2-ylmethyl)pyrrolidin-3-yl)-7-(tetrahydro-2H-pyran-4-yl)imidazo[5,1-f][1,2,4]triazin-4(3H)-one] | > 10000 nM | – |
| C[C@@H]1CN(Cc2ncc3ccccc3n2)C[C@H]1c1nn2c(C3CCOCC3)ncc2c(=O)[nH]1 (single isomer, unassigned) [(−)-2-((3,4-trans)-4-methyl-1-(quinazolin-2-ylmethyl)pyrroli] [(−)-2-((3,4-trans)-4-methyl-1-(quinazolin-2-ylmethyl)pyrrolidin-3-yl)-7-(tetrahydro-2H-pyran-4-yl)imidazo[5,1-f][1,2,4]triazin-4(3H)-one] | < 1000 nM | – |
| C[C@@H]1CN(Cc2ccc3ccccc3n2)C[C@H]1c1nn2c(C3CCOCC3)ncc2c(=O)[nH]1 (single isomer, unassigned) [(−)-2-((3,4-trans)-4-methyl-1-(quinolin-2-ylmethyl)pyrrolidi] [(−)-2-((3,4-trans)-4-methyl-1-(quinolin-2-ylmethyl)pyrrolidin-3-yl)-7-(tetrahydro-2H-pyran-4-yl)imidazo[5,1-f][1,2,4]triazin-4(3H)-one] | < 1000 nM | – |
| CCS(=O)(=O)N1CCC(c2ncc3c(=O)[nH]c([C@@H]4CN(Cc5ncccn5)C[C@H]4C)nn23)CC1 (single isomer, unassigned) [(−)-7-(1-(ethylsulfonyl)piperidin-4-yl)-2-((3,4-trans)-4-methyl-1-(pyrimidin-2-ylmethyl)pyrrolidin-3-yl)imidazo[5,1-f][1,2,4]triazin-4(3H)-one] | > 10000 nM | – |
| CC(=O)N1CCC(c2ncc3c(=O)[nH]c([C@@H]4CN(Cc5ccccc5)C[C@H]4C)nn23)CC1 (single isomer, unassigned) [(−)-7-(1-acetylpiperidin-4-yl)-2-((3,4-trans)-1-benzyl-4-methylpyrrolidin-3-yl)imidazo[5,1-f][1,2,4]triazin-4(3H)-one] | > 10000 nM | – |
| CC(=O)N1CCC(c2ncc3c(=O)[nH]c([C@@H]4CN(Cc5ncccn5)C[C@H]4C)nn23)CC1 (single isomer, unassigned) [(−)-7-(1-acetylpiperidin-4-yl)-2-((3,4-trans)-4-methyl-1-(pyrimidin-2-ylmethyl)pyrrolidin-3-yl)imidazo[5,1-f][1,2,4]triazin-4(3H)-one] | > 10000 nM | – |
| Cc1cc(F)ccc1-c1ncc2c(=O)[nH]c([C@@H]3CN(Cc4ncccn4)C[C@H]3C)nn12 (single isomer, unassigned) [(−)-7-(4-fluoro-2-methylphenyl)-2-((3,4-trans)-4-methyl-1-(pyrimidin-2-ylmethyl)pyrrolidin-3-yl)imidazo[5,1-f][1,2,4]triazin-4(3H)-one] | < 1000 nM | – |
| CC1CN([C@@H](C)c2ccccc2)CC1c1nn2c(C3CCOCC3)ncc2c(=O)[nH]1 (single isomer, unassigned; (+)) | < 1000 nM | – |
| CC1CN(Cc2ccccc2)CC1c1nn2c(C34CC5CC(CC(C5)C3)C4)ncc2c(=O)[nH]1 (single isomer, unassigned; (+)) | < 1000 nM | – |
| CC1CN(Cc2ncccn2)CC1c1nn2c(C34CC5CC(CC(C5)C3)C4)ncc2c(=O)[nH]1 (single isomer, unassigned; (+)) | < 1000 nM | – |
| CC1CN([C@H](C)c2ccccc2)CC1c1nn2c(C3CCOCC3)ncc2c(=O)[nH]1 (single isomer, unassigned; (-)) | < 1000 nM | – |
| CC1CN(Cc2ccccc2)CC1c1nn2c(C34CC5CC(CC(C5)C3)C4)ncc2c(=O)[nH]1 (single isomer, unassigned; (-)) | > 10000 nM | – |
